Assay results published in ChEMBL document CHEMBL5528035, “Design, Synthesis, and Biological Evaluation for First GPX4 and CDK Dual Inhibitors” (J Med Chem, 2024).
Activity calls are given as the source filed them. The rule behind the calls is not given here.

Key:
MDA-MB-231 [1] = experiment: Antitumor activity against human MDA-MB-231 cells xenografted in BALB/c mouse assessed as decrease in GPX4 expression at 40 mg/kg,ip administrated for 21 consecutive days by immunohistochemistry; type: functional, organism-based
[2] = Tmax in Sprague-Dawley rat at 10 mg/kg,iv administration measured upto 24 hrs by LC-MS/MS analysis; type: ADME, organism-based; conditions: in vivo
MDA-MB-231 [3] = experiment: Antitumor activity against human MDA-MB-231 cells xenografted in BALB/c mouse assessed as tumor growth inhibition at 20 mg/kg,ip administrated for 21 consecutive days; type: functional; conditions: read-out: TGI
[4] = Toxicity in ICR mouse assessed as lethal dose at ip administration for 14 days; type: organism-based; conditions: in vivo, time 14 day
HCT-116 [5] = experiment: Induction of apoptosis in human HCT-116 cells assessed as upregulation of Bax expression at 0.5 to 2 uM incubated for 24 hrs by Western blotting analysis; type: functional, cell-based; conditions: dose 0.5-2 µM
[6] = Toxicity in BALB/c mouse xenografted with human MDA-MB-231 cells assessed as morphological change in spleen at 20 mg/kg,ip administrated for 21 consecutive days by hematoxylin and eosin staining based analysis; type: organism-based; conditions: in vivo
[7] = Half life in human liver microsomes in presence of NADPH incubated for 5 to 45 mins by LC/MS analysis; type: ADME, Microsome; conditions: time 5-45 min
[8] = Toxicity in BALB/c mouse xenografted with human MDA-MB-231 cells assessed as change in body weight at 40 mg/kg,ip administrated for 21 consecutive days; type: organism-based; conditions: in vivo
[9] = Toxicity in BALB/c mouse xenografted with human MDA-MB-231 cells assessed as morphological change in spleen at 40 mg/kg,ip administrated for 21 consecutive days by hematoxylin and eosin staining based analysis; type: organism-based; conditions: in vivo
CDK6/cyclin D3 = CDK6/cyclin D3 (Homo sapiens, UniProt Q00534); experiment: Inhibition of CDK6/CyclinD3 (unknown origin) preincubated for 15 mins followed by substrate and ATP addition incubated for 10 mins by ADP-glo luminescent assay; type: protein-complex assay
Chain of CDK6/cyclin D3 (P30281 whole entry): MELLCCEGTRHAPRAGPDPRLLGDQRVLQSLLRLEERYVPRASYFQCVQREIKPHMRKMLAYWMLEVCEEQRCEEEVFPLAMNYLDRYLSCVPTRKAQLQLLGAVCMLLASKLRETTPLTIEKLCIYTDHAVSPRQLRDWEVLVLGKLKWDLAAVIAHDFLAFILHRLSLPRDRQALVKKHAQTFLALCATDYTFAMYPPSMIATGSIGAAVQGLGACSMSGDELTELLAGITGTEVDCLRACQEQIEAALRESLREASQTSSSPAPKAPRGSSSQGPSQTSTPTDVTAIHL
Chain of CDK6/cyclin D3 (Q00534 whole entry): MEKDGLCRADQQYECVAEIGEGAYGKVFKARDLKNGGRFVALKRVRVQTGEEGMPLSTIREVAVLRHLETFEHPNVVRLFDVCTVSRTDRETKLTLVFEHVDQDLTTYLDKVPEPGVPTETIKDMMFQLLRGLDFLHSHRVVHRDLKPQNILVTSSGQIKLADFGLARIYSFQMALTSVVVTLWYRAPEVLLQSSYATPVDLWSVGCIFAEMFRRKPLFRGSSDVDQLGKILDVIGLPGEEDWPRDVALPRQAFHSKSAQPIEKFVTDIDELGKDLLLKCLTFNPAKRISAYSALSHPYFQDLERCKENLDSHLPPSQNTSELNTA

[10] = Intrinsic clearance in human liver microsomes in presence of NADPH incubated for 5 to 45 mins by LC/MS analysis; type: ADME, Microsome; conditions: time 5-45 min, read-out: CLH
[11] = biological target: CDK6/cyclin D3 (Homo sapiens) (UniProt P30281+Q00534); experiment: Inhibition of CDK6/CyclinD3 (unknown origin) at 100 nM preincubated for 15 mins followed by substrate and ATP addition incubated for 10 mins by ADP-glo luminescent assay relative to control; type: protein-complex assay; conditions: time 25.0 min
[12] = Clearance in Sprague-Dawley rat at 10 mg/kg,iv administration measured upto 24 hrs by LC-MS/MS analysis; type: ADME, organism-based; conditions: in vivo
MDA-MB-231 [13] = experiment: Induction of ferroptosis in human MDA-MB-231 cells assessed as increase in intracellular ferrous ion level at 0.5 to 2 uM incubated for 24 hrs by ferroOrange probe based flow cytometric analysis; type: functional, cell-based; conditions: dose 0.5-2 µM
HCT-116 [14] = experiment: Induction of apoptosis in human HCT-116 cells assessed as downregulation of BCL-2 expression at 0.5 to 2 uM incubated for 24 hrs by Western blotting analysis; type: functional, cell-based; conditions: dose 0.5-2 µM
HCT-116 [15] = experiment: Induction of ferroptosis in human HCT-116 cells assessed as increase in intracellular lipid peroxide level incubated for 24 hrs by flow cytometric analysis; type: functional, cell-based
[16] = Toxicity in BALB/c mouse xenografted with human MDA-MB-231 cells assessed as morphological change in kidney at 20 mg/kg,ip administrated for 21 consecutive days by hematoxylin and eosin staining based analysis; type: organism-based; conditions: in vivo
HCT-116 [17] = experiment: Induction of ferroptosis in human HCT-116 cells assessed as increase in intracellular lipid peroxide level incubated for 24 hrs by […] staining based confocal laser scanning microscopic analysis; type: functional, cell-based
[18] = Toxicity in BALB/c mouse xenografted with human MDA-MB-231 cells assessed as morphological change in heart at 40 mg/kg,ip administrated for 21 consecutive days by hematoxylin and eosin staining based analysis; type: organism-based; conditions: in vivo
MDA-MB-231 [19] = experiment: Antitumor activity against human MDA-MB-231 cells xenografted in BALB/c mouse assessed as tumor growth inhibition at 40 mg/kg,ip administrated for 21 consecutive days; type: functional; conditions: read-out: TGI
HCT-116 [20] = experiment: Induction of apoptosis in human HCT-116 cells incubated for 24 hrs by annexin-V-FITC/PI staining based flow cytometric analysis; type: functional, cell-based
[21] = AUC (0 to t) in Sprague-Dawley rat at 10 mg/kg,iv administration measured upto 24 hrs by LC-MS/MS analysis; type: ADME, organism-based; conditions: in vivo
HCT-116 [22] = experiment: Induction of ferroptosis in human HCT-116 cells assessed as increase in intracellular ferrous ion level at 0.5 to 2 uM incubated for 24 hrs by ferroOrange probe based confocal laser scanning microscopic analysis; type: functional, cell-based; conditions: dose 0.5-2 µM
MDA-MB-231 [23] = experiment: Induction of ferroptosis in human MDA-MB-231 cells assessed as increase in intracellular lipid peroxide level incubated for 24 hrs by […] staining based confocal laser scanning microscopic analysis; type: functional, cell-based
CDK4/Cyclin D3 = CDK4/Cyclin D3 (Homo sapiens, UniProt P11802); experiment: Inhibition of CDK4/CyclinD3 (unknown origin) preincubated for 15 mins followed by substrate and ATP addition incubated for 10 mins by ADP-glo luminescent assay; type: protein-complex assay
Chain of CDK4/Cyclin D3 (P11802 whole entry): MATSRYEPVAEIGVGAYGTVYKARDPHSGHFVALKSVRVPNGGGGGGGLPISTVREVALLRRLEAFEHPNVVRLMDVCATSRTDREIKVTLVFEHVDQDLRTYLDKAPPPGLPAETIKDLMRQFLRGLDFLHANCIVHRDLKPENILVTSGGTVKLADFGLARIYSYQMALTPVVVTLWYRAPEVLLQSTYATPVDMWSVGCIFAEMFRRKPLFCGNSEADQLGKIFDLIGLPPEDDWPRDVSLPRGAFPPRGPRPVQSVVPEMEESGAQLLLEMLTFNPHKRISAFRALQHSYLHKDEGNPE
Chain of CDK4/Cyclin D3 (P30281 whole entry, further chain): as the sequence (P30281 whole entry) above

[24] = MRT (0 to t) in Sprague-Dawley rat at 10 mg/kg,iv administration measured upto 24 hrs by LC-MS/MS analysis; type: ADME, organism-based; conditions: in vivo
MDA-MB-231 [25] = experiment: Induction of ferroptosis in human MDA-MB-231 cells assessed as increase in intracellular lipid peroxide level incubated for 24 hrs by flow cytometric analysis; type: functional, cell-based
MDA-MB-231 [26] = experiment: cells; conditions: Homo sapiens, MDA-MB-231, 48 h
Description: Antiproliferative activity against human MDA-MB-231 cells assessed as inhibition of cell growth incubated for 48 hrs by CCK-8 assay

HCT-116 [27] = experiment: Induction of cell cycle arrest in human HCT-116 cells assessed as downregulation of phoshorylated Rb at 0.5 to 2 uM incubated for 24 hrs by Western blotting analysis; type: functional, cell-based; conditions: dose 0.5-2 µM
[28] = Toxicity in BALB/c mouse xenografted with human MDA-MB-231 cells assessed as morphological change in lung at 20 mg/kg,ip administrated for 21 consecutive days by hematoxylin and eosin staining based analysis; type: organism-based; conditions: in vivo
HCT-116 [29] = experiment: cells; conditions: Homo sapiens, HCT-116, 48 h
Description: Antiproliferative activity against human HCT-116 cells assessed as inhibition of cell growth incubated for 48 hrs by CCK-8 assay

[30] = biological target: CDK2/Cyclin A2 (Homo sapiens) (UniProt P24941+P20248); experiment: Inhibition of CDK2/CyclinA2 (unknown origin) at 100 nM preincubated for 15 mins followed by substrate and ATP addition incubated for 10 mins by ADP-glo luminescent assay relative to control; type: protein-complex assay; conditions: time 25.0 min
[31] = Toxicity in BALB/c mouse xenografted with human MDA-MB-231 cells assessed as morphological change in liver at 20 mg/kg,ip administrated for 21 consecutive days by hematoxylin and eosin staining based analysis; type: organism-based; conditions: in vivo
MDA-MB-231 [32] = experiment: Induction of apoptosis in human MDA-MB-231 cells incubated for 24 hrs by annexin-V-FITC/PI staining based flow cytometric analysis; type: functional, cell-based
[33] = Toxicity in BALB/c mouse xenografted with human MDA-MB-231 cells assessed as morphological change in kidney at 40 mg/kg,ip administrated for 21 consecutive days by hematoxylin and eosin staining based analysis; type: organism-based; conditions: in vivo
MDA-MB-231 [34] = experiment: Antitumor activity against human MDA-MB-231 cells xenografted in BALB/c mouse assessed as decrease in phosphorylated Rb expression at 40 mg/kg,ip administrated for 21 consecutive days by immunohistochemistry; type: functional, organism-based

Compound: COc1ccc2c(c1)NC(=O)/C2=C1\Nc2ccccc2\C1=N/OCCCNC(=O)CCn1cc(COc2ccc(N(C(=O)CCl)C(C(=O)NCCc3ccccc3)c3cccs3)cc2Cl)nn1 (stereo unspecified)
- Activity (MDA-MB-231 [1]): Active
- Tmax [2]: 48 min
- inhibition in vivo at 20 mg/kg (MDA-MB-231 [3]): 67.8%
- LD50 at 336 h [4]: 185 mg/kg
- Activity (HCT-116 [5]): Active
- Activity [6]: Non-Toxic
- half-life [7]: 58.7 min
- Activity [8]: Non-Toxic
- Activity [9]: Non-Toxic
- IC50 (CDK6/cyclin D3): 68.1 nM
- CLint scaled [10]: 27.3 mL/min/kg
- inhibition [11]: 51.8%
- clearance [12]: 10.2 mL/min/kg
- Activity (MDA-MB-231 [13]): Active
- Activity (HCT-116 [14]): Active
- Activity (HCT-116 [15]): Dose-Dependent Effect
- Activity [16]: Non-Toxic
- Activity (HCT-116 [17]): Dose-Dependent Effect
- Activity [18]: Non-Toxic
- inhibition in vivo at 40 mg/kg (MDA-MB-231 [19]): 83.3%
- Activity (HCT-116 [20]): Dose-Dependent Effect
- AUC(0-t) at 24 h [21]: 15700 ng·h/mL
- Activity (HCT-116 [22]): Active
- Activity (MDA-MB-231 [23]): Dose-Dependent Effect
- IC50 (CDK4/Cyclin D3): 191 nM
- MRT last at 24 h [24]: 216 min
- Activity (MDA-MB-231 [25]): Dose-Dependent Effect
- IC50 (MDA-MB-231 [26]): 800 nM
- Activity (HCT-116 [27]): Active
- Activity [28]: Non-Toxic
- IC50 (HCT-116 [29]): 750 nM
- inhibition [30]: 10.7%
- Activity [31]: Non-Toxic
- Activity (MDA-MB-231 [32]): Dose-Dependent Effect
- Activity [33]: Non-Toxic
- Activity (MDA-MB-231 [34]): Active
